Test results published in patent publication US20240245717A1, “ANTIVIRAL COMPOUNDS, COMPOSITIONS, AND USES THEREOF” (priority 2022, published 2024).
Where “and” joins values, the source holds several entries; their conditions need not be identical. Identical values can stand only once.

Key:
[1] = tested on: SARS-CoV-2 WAS-Calu-3; design: species or system Golden Syrian Hamsters; conditions: hamster, in vivo
[2] = tested on: SARS-CoV-2 isolate Hong Kong/VM20001061/2020; assay: microbe, parasite or virus in culture; format: cell-based; design: % of control: dose or concentration left out as unconfirmed; conditions: 48 hours
[3] = tested on: Pseudovirus rVSV-SARS-CoV-2; assay: microbe, parasite or virus in culture; format: cell-based; conditions: for IC50: Pseudovirus, Vero, 24 h, read-out: NT50

CCCCOP(=O)(O)OC[C@H]1O[C@@H](n2cc(C)c(=O)[nH]c2=O)C[C@@H]1OP(=O)(O)OCCCC [Nu-3, butyl-phosphate-5′-thymidine-3′-phosphate-butyl]
body weight of infected, treated hamsters [1]: began to regain body weight
viral titers from harvested lungs [1]: did not show any measurable viral particles, with the exception of one hamster

CCCCOP(=O)(O)OC[C@H]1O[C@@H](n2ccc(N)nc2=O)C[C@@H]1OP(=O)(O)OCCCC [Nu-8, ((2R,3S,5R)-5-(4-amino-2-oxopyrimidin-1(2H)-yl)-3-((butoxyoxidophosphor-yl)oxy)tetrahydrofuran-2-yl)methyl butyl phosphate]
body weight of infected, treated hamsters [1]: began to regain body weight
viral titers from harvested lungs [1]: no virus detected

CCCCOP(=O)(O)OC[C@H]1O[C@@H](n2ccc(N)nc2=O)[C@H](OC)[C@@H]1OP(=O)(O)OCCCC [Nu-10, ((2R,3R,4R,5R)-5-(4-amino-2-oxopyrimidin-1(2H)-yl)-3-((butoxy(hydroxy)phosphoryl)oxy)-4-methoxytetrahydrofuran-2-yl) methyl butyl hydrogen phosphate]
% of control [2]: 3% and 8%
inhibition at 3120 µg/mL ([2]; Severe acute respiratory syndrome coronavirus 2, HEK-293T, 3.12 mg/ml): 97%
neutralization of SARS CoV-2 infection in vitro [3]: neutralize SARS CoV-2 infection in vitro
IC50 [3]: 21.8 mg/mL

CCCCOP(=O)(O)OC[C@H]1O[C@@H](n2cnc3c(N)ncnc32)[C@H](OC)[C@@H]1OP(=O)(O)OCCCC [Nu-11, (2R,3R,4R,5R)-5-(6-aminopurin-9-yl)-3-((butoxy(hydroxy)phosphoryl)oxy)-4-methoxytetrahydrofuran-2-yl)methyl butyl hydrogen phosphate]
neutralization of SARS CoV-2 infection in vitro [3]: neutralize SARS CoV-2 infection in vitro
IC50 [3]: 1.15 mg/mL
